Assay results published in patent publication US6559101B2, “N- (5, 7-dimethoxy [1, 2, 4] triazolo [1, 5-a] pyrimidin-2-yl) arylsulfonamide compounds and their use as herbicides” (Dow AgroSciences LLC, priority 2000, dated 2003).

Legend:
Format in all cases: in vivo
[1] = test system: morningglory (Ipomoea hederacea); assay: Preemergence herbicidal activity; conditions: 17.5 g/Ha; scored after 3 weeks; 0 no injury, 100 complete kill or no germination
Method in brief: (§1)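 Visual rating 3 weeks after treatment, 0-100% injury versus untreated pots, where 100 means complete kill or no germination. Soil of seeded pots was sprayed preemergence with aqueous Tween 155 dilutions of acetone/DMSO stocks, up to 4.48 kg/ha. Plants were grown in a greenhouse at about 23-29 °C day/22-28 °C night with ~15 h light.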

[2] = test system: velvetleaf (Abutilion theophrasti); assay: Preemergence herbicidal activity; conditions: 17.5 g/Ha; scored after 3 weeks; 0 no injury, 100 complete kill or no germination
Method in brief: as §1

[3] = test system: giant foxtail (Setaria faberi); assay: Preemergence herbicidal activity; conditions: 17.5 g/Ha; scored after 3 weeks; 0 no injury, 100 complete kill or no germination
Method in brief: as §1

[4] = test system: blackgrass (Alopecurus myosuroides); assay: Preemergence herbicidal activity; conditions: 17.5 g/Ha; scored after 3 weeks; 0 no injury, 100 complete kill or no germination
Method in brief: as §1

[5] = test system: pigweed (Amaranthus retroflexus); assay: Preemergence herbicidal activity; conditions: 17.5 g/Ha; scored after 3 weeks; 0 no injury, 100 complete kill or no germination
Method in brief: as §1

[6] = test system: Rox orange sorghum (Sorghum bicolor); assay: Preemergence herbicidal activity; conditions: 17.5 g/Ha; scored after 3 weeks; 0 no injury, 100 complete kill or no germination
Method in brief: as §1

[7] = test system: barnyardgrass (Echinochloa crus-galli); assay: Preemergence herbicidal activity; conditions: 17.5 g/Ha; scored after 3 weeks; 0 no injury, 100 complete kill or no germination
Method in brief: as §1

[8] = test system: lambsquarters (Chenopodium album); assay: Preemergence herbicidal activity; conditions: 17.5 g/Ha; scored after 3 weeks; 0 no injury, 100 complete kill or no germination
Method in brief: as §1

[9] = test system: crabgrass (Digitaria sanguinalis); assay: Preemergence herbicidal activity; conditions: 17.5 g/Ha; scored after 3 weeks; 0 no injury, 100 complete kill or no germination
Method in brief: as §1

[10] = test system: wild oats (Avena fatua); assay: Preemergence herbicidal activity; conditions: 17.5 g/Ha; scored after 3 weeks; 0 no injury, 100 complete kill or no germination
Method in brief: as §1

[11] = test system: wild poinsettia (Euphorbia heterophylla); assay: Preemergence herbicidal activity; conditions: 17.5 g/Ha; scored after 3 weeks; 0 no injury, 100 complete kill or no germination
Method in brief: as §1

[12] = test system: cocklebur (Xanthium strumarium); assay: Preemergence herbicidal activity; conditions: 17.5 g/Ha; scored after 3 weeks; 0 no injury, 100 complete kill or no germination
Method in brief: as §1

[13] = test system: Windgrass (Apera spica-venta); assay: Postemergence herbicidal activity with safener; conditions: 25 g/ha postemergence; 0 no injury, 100 complete kill
Source text: (§2) Pre-formulated test materials utilized were as follows: Compound 15 as a 30 g ai/L emulsified concentrate (3% Compound 15, 3% Agrimer AL-10 (copolymer of 1-ethenyl-2-pyrolidinone and 1-butene), 94% N-methyl pyrrolidone w/w) and cloquintocet-mexyl (CQC) as a 120 g ai/L emulsified concentrate (12% cloquintocet-mexyl, 2.5% Toximul D, 2.5% Toximul H, [blends of calcium dodecylbenzenesulfonate plus castor oil ehtoxylates, nonylphenol ethoxylates and EO-PO block copolymers] 83% aromatic 200 w/w). Diluted stock solutions of formulated materials were made in distilled water. Final spray solutions were made by adding specified aliquots of diluted stock materials to a solution containing distilled water and X-77 surfactant at 0.25% v/v. The solutions were applied using a mechanized track-sprayer calibrated to deliver 187 1/ha carrier volume with a nozzle (flat fan) pressure of 276 kilopascals.
(§3) Assessment of weed control and crop injury was taken a 3 weeks after application. Plant injury was visually assessed on a scale of 0 to 100% with 0 equal to no injury and 100 equal to complete kill.

[14] = test system: blackgrass (Alopecurus myosuroides); assay: Postemergence herbicidal activity with safener; conditions: 25 g/ha postemergence; 0 no injury, 100 complete kill
Source text: as §2, §3

[15] = test system: Italian ryegrass (Lolium multiflorum); assay: Postemergence herbicidal activity with safener; conditions: 25 g/ha postemergence; 0 no injury, 100 complete kill
Source text: as §2, §3

[16] = test system: Green foxtail (Setaria viridis); assay: Postemergence herbicidal activity with safener; conditions: 25 g/ha postemergence; 0 no injury, 100 complete kill
Source text: as §2, §3

[17] = test system: Wild oat (Avena fatua); assay: Postemergence herbicidal activity with safener; conditions: 25 g/ha postemergence; 0 no injury, 100 complete kill
Source text: as §2, §3

[18] = test system: Spring wheat (Triticum aestivum); assay: Postemergence herbicidal activity with safener, crop injury; conditions: 25 g/ha postemergence; 3 weeks after application; 0 no injury, 100 complete kill
Source text: as §2, §3

[19] = test system: chickweed (Stellaria media); assay: Postemergence herbicidal activity; conditions: 7.8 ppm; scored after 2 weeks; 0 no injury, 100 complete kill
Method in brief: (§4)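 Visual injury rating (0 = no injury, 100% = complete kill) taken 2 weeks post-application relative to untreated controls. Compounds applied as foliar spray in an acetone/DMSO-based aqueous carrier with crop oil and surfactant to plants at first or second true leaf stage; 1 ppm corresponds to about 1 g/ha.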

[20] = test system: velvetleaf (Abutilion theophrasti); assay: Postemergence herbicidal activity; conditions: 7.8 ppm; scored after 2 weeks; 0 no injury, 100 complete kill
Method in brief: as §4

[21] = test system: giant foxtail (Setaria faberi); assay: Postemergence herbicidal activity; conditions: 7.8 ppm; scored after 2 weeks; 0 no injury, 100 complete kill
Method in brief: as §4

[22] = test system: viola (Viola tricolor); assay: Postemergence herbicidal activity; conditions: 7.8 ppm; scored after 2 weeks; 0 no injury, 100 complete kill
Method in brief: as §4

[23] = test system: blackgrass (Alopecurus myosuroides); assay: Postemergence herbicidal activity; conditions: 7.8 ppm; scored after 2 weeks; 0 no injury, 100 complete kill
Method in brief: as §4

[24] = test system: pigweed (Amaranthus retroflexus); assay: Postemergence herbicidal activity; conditions: 7.8 ppm; scored after 2 weeks; 0 no injury, 100 complete kill
Method in brief: as §4

[25] = test system: Rox orange sorghum (Sorghum bicolor); assay: Postemergence herbicidal activity; conditions: 7.8 ppm; scored after 2 weeks; 0 no injury, 100 complete kill
Method in brief: as §4

[26] = test system: lambsquarters (Chenopodium album); assay: Postemergence herbicidal activity; conditions: 7.8 ppm; scored after 2 weeks; 0 no injury, 100 complete kill
Method in brief: as §4

[27] = test system: wild oats (Avena fatua); assay: Postemergence herbicidal activity; conditions: 7.8 ppm; scored after 2 weeks; 0 no injury, 100 complete kill
Method in brief: as §4

[28] = test system: cocklebur (Xanthium strumarium); assay: Postemergence herbicidal activity; conditions: 7.8 ppm; scored after 2 weeks; 0 no injury, 100 complete kill
Method in brief: as §4

[29] = test system: wild buckwheat (Polygonum convolvulus); assay: Postemergence herbicidal activity; conditions: 7.8 ppm; scored after 2 weeks; 0 no injury, 100 complete kill
Method in brief: as §4

COc1cc(OC)n2nc(NS(=O)(=O)c3c(C(F)(F)F)ccnc3OC)nc2n1 [Compound 15, N-(5,7-dimethoxy[1,2,4]triazolo[1,5-a]pyrimidin-2-yl)-2-methoxy-4-(trifluoromethyl)-3-pyridinesulfonamide]
47%: % Injury TRZAS [18]
98%: Preemergence herbicidal activity ECHCG [7] | Preemergence herbicidal activity DIGSA [9] | Preemergence herbicidal activity AVEFA [10] | Preemergence herbicidal activity EPHHL [11] | Postemergence herbicidal activity STEME [19] | Postemergence herbicidal activity AMARE [24] | Postemergence herbicidal activity SORBI [25] | Postemergence herbicidal activity AVEFA [27] | Postemergence herbicidal activity POLCO [29]
95%: Preemergence herbicidal activity IPOHE [1] | Preemergence herbicidal activity ABUTH [2] | Preemergence herbicidal activity XANST [12] | Postemergence herbicidal activity ABUTH [20] | Postemergence herbicidal activity VIOTR [22] | Postemergence herbicidal activity CHEAL [26]
99%: % Control 3 Weeks After Application ALOMY [14] | % Control 3 Weeks After Application LOLMU [15] | % Control 3 Weeks After Application SETVI [16] | % Control 3 Weeks After Application AVEFA [17] | Postemergence herbicidal activity ALOMY [23]
70%: Preemergence herbicidal activity AMARE [5]
90%: Postemergence herbicidal activity XANST [28]
100%: Preemergence herbicidal activity SETFA [3] | Preemergence herbicidal activity ALOMY [4] | Preemergence herbicidal activity SORBI [6] | Preemergence herbicidal activity CHEAL [8] | % Control 3 Weeks After Application APSEV [13] | Postemergence herbicidal activity SETFA [21]
